The text below walks through data of patent US7211572B2 (Japan Tobacco Inc., priority 2003, dated 2007).

Structures can show the parent of a compound that is named as a salt. Bounds are passed on as bounds.

The target in the test is T1, HIV integrase (Human immunodeficiency virus type 1 group M subtype B, UniProt P12497, F1332H).
T1 construct: HIV integrase full length gene; made in house; host or cells: Escherichia coli BL21(DE3), plasmid pET21a-INH
As to the kind of experiment: Determination of enzyme (HIV integrase) inhibitory activity. Type of test: biochemical. Conditions: recombinant HIV integrase (F185H), strand transfer ELISA, absorbance at 450 nm. The method, boiled down:
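Full-length integrase with F185H, expressed in E. coli and purified, was reacted for 60 min at 37 °C with compound and biotinylated donor DNA bound to streptavidin plates. Target DNA was added for 10 min, then anti-digoxigenin-peroxidase detection at A450; IC50 from % inhibition versus enzyme-free blank.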
(In general: An ELISA detects its analyte on a solid surface through an enzyme-linked reagent.)
The IC50 is the concentration that inhibits the measured activity by half. On to `CC(=O)N(C)c1cn2ccn(Cc3cccc(Cl)c3)c(=O)c2c(O)c1=O` [Example 259, N-[2-(3-chlorobenzyl)-9-hydroxy-1,8-dioxo-1,8-dihydro-2H-pyrido[1,2-a]pyrazin-7-yl]-N-methylacetamide], for which the IC50 was below 10 nM.
Next, `Cn1nc2c(c(O)c1=O)C(=O)N(Cc1cccc(Cl)c1)CC2` [Example 123, 6-(3-chlorobenzyl)-4-hydroxy-2-methyl-2,6,7,8-tetrahydropyrido[4,3-c]pyridazine-3,5-dione]: 100 to 1000 nM.
In the case of `CC(C)C(O)c1cc(=O)c(O)c2n1CCN(Cc1ccc(Cl)c(Cl)c1)C2=O` (centres unmarked) [Example 53, 2-(3,4-dichlorobenzyl)-9-hydroxy-6-(1-hydroxy-2-methylpropyl)-3,4-dihydro-2H-pyrido[1,2-a]pyrazine-1,8-dione], the IC50 lay within 10 to 100 nM.
Next, `CC(CCN1CCn2cc(-c3nccs3)c(=O)c(O)c2C1=O)c1ccccc1` (centres unmarked) [Example 351, 9-hydroxy-2-(3-phenylbutyl)-7-(thiazol-2-yl)-3,4-dihydro-2H-pyrido[1,2-a]pyrazine-1,8-dione hydrochloride]: 10 to 100 nM.
As for `CCCCNC(=O)c1cn2ccn(Cc3cccc(Cl)c3)c(=O)c2c(O)c1=O` [Example 172, N-butyl-2-(3-chlorobenzyl)-9-hydroxy-1,8-dioxo-1,8-dihydro-2H-pyrido[1,2-a]pyrazine-7-carboxamide], the figure is below 10 nM; as for `O=c1ccn2ccn(Cc3cccc(Cl)c3)c(=O)c2c1O` [Example 88, 2-(3-chlorobenzyl)-9-hydroxy-2H-pyrido[1,2-a]pyrazine-1,8-dione hydrochloride], 10 to 100 nM.
Next, `CCCCCN1CCn2cc(-c3nccs3)c(=O)c(O)c2C1=O` [Example 339, 9-hydroxy-2-pentyl-7-(thiazol-2-yl)-3,4-dihydro-2H-pyrido[1,2-a]pyrazine-1,8-dione hydrochloride]: 100 to 1000 nM.
On to `Cc1cc(=O)c(O)c2n1CCN(Cc1ccc(Cl)c(Cl)c1)C2=O` [Example 60, 2-(3,4-dichlorobenzyl)-9-hydroxy-6-methyl-3,4-dihydro-2H-pyrido[1,2-a]pyrazine-1,8-dione], for which the IC50 fell in the range of 10 to 100 nM.
As for `CCCC(=O)Nc1cn2ccn(Cc3cccc(Cl)c3)c(=O)c2c(O)c1=O` [Example 256, N-[2-(3-chlorobenzyl)-9-hydroxy-1,8-dioxo-1,8-dihydro-2H-pyrido[1,2-a]pyrazin-7-yl]butyramide], the figure is below 10 nM; as for `O=C(NCc1ccccc1)c1cn2c(c(O)c1=O)C(=O)N(Cc1cccc(Cl)c1)CC2` [Example 266, N-benzyl-2-(3-chlorobenzyl)-9-hydroxy-1,8-dioxo-1,3,4,8-tetrahydro-2H-pyrido[1,2-a]pyrazine-7-carboxamide], below 10 nM; as for `CC(C)C(=O)c1cn2ccn(Cc3cccc(Cl)c3)c(=O)c2c(O)c1=O` [Example 149, 2-(3-chlorobenzyl)-9-hydroxy-7-isobutyryl-2H-pyrido[1,2-a]pyrazine-1,8-dione hydrochloride], below 10 nM.
On to `O=C(O)Cc1cn2ccn(Cc3cccc(Cl)c3)c(=O)c2c(O)c1=O` [Example 191, [2-(3-chlorobenzyl)-9-hydroxy-1,8-dioxo-1,8-dihydro-2H-pyrido[1,2-a]pyrazin-7-yl]acetic acid], for which the 50% inhibitory concentration (IC50) fell in the range of 10 to 100 nM.
Next, `O=C1c2c(O)c(=O)c(-c3nccs3)cn2CCN1Cc1ccc(Cl)c(F)c1` [Example 294, 2-(4-chloro-3-fluorobenzyl)-9-hydroxy-7-(thiazol-2-yl)-3,4-dihydro-2H-pyrido[1,2-a]pyrazine-1,8-dione]: below 10 nM.
Next, `CC(C)(CO)C(=O)c1cn2ccn(Cc3cccc(Cl)c3)c(=O)c2c(O)c1=O` [Example 230, 2-(3-chlorobenzyl)-9-hydroxy-7-(3-hydroxy-2,2-dimethylpropionyl)-2H-pyrido[1,2-a]pyrazine-1,8-dione hydrochloride]: below 10 nM; `CC(C)(C)c1ccc(CNC(=O)c2cn3c(c(O)c2=O)C(=O)N(Cc2cccc(Cl)c2)CC3)cc1` [Example 273, N-(4-tert-butylbenzyl)-2-(3-chlorobenzyl)-9-hydroxy-1,8-dioxo-1,3,4,8-tetrahydro-2H-pyrido [1,2-a] pyrazine-7-carboxamide]: 10 to 100 nM.
Next, `Cn1ncnc1-c1cn2ccn(Cc3ccc(F)cc3)c(=O)c2c(O)c1=O` [Example 360, 2-(4-fluorobenzyl)-9-hydroxy-7-(2-methyl-2H-1,2,4-triazol-3-yl)-2H-pyrido[1,2-a]pyrazine-1,8-dione hydrochloride]: below 10 nM; `O=C(Nc1cn2ccn(Cc3ccc(F)cc3)c(=O)c2c(O)c1=O)c1ccccc1` [Example 304, N-[2-(4-fluorobenzyl)-9-hydroxy-1,8-dioxo-1,8-dihydro-2H-pyrido[1,2-a]pyrazin-7-yl]benzamide]: below 10 nM.
In the case of `O=C(NCc1ccccc1F)c1cn2c(c(O)c1=O)C(=O)N(Cc1ccc(F)cc1)CC2` [Example 377, N-(2-fluorobenzyl)-2-(4-fluorobenzyl)-9-hydroxy-1,8-dioxo-1,3,4,8-tetrahydro-2H-pyrido[1,2-a]pyrazine-7-carboxamide], the IC50 was below 10 nM.
Regarding `O=C1c2c(O)c(=O)ncn2CCN1Cc1cccc(Cl)c1` [Example 108, 2-(3-chlorobenzyl)-9-hydroxy-3,4-dihydro-2H-pyrazino[1,2-c]pyrimidine-1,8-dione], the IC50 lay in the range of 10 to 100 nM.
Next, `O=c1c(-c2ccccc2C(F)(F)F)cn2ccn(Cc3cccc(Cl)c3)c(=O)c2c1O` [Example 127, 2-(3-chlorobenzyl)-9-hydroxy-7-(2-trifluoromethylphenyl)-2H-pyrido[1,2-a]pyrazine-1,8-dione hydrochloride]: below 10 nM.
As for `O=c1ccn2ccn(Cc3ccc(Cl)c(Cl)c3)c(=O)c2c1O` [Example 8, 2-(3,4-dichlorobenzyl)-9-hydroxy-2H-pyrido[1,2-a]pyrazine-1,8-dione], the IC50 is below 10 nM.
Next, `CC(C)(C)C(=O)c1cn2ccn(Cc3ccc(F)c(Cl)c3)c(=O)c2c(O)c1=O` [Example 217, 2-(3-chloro-4-fluorobenzyl)-7-(2,2-dimethylpropionyl)-9-hydroxy-2H-pyrido[1,2-a]pyrazine-1,8-dione hydrochloride]: below 10 nM; `COC(=O)C1CN(Cc2ccc(Cl)c(Cl)c2)C(=O)c2c(O)c(=O)ccn21` (centres unmarked) [Example 21, methyl 2-(3,4-dichlorobenzyl)-9-hydroxy-1,8-dioxo-1,3,4,8-tetrahydro-2H-pyrido[1,2-a]pyrazine-4-carboxylate]: 10 to 100 nM.
As for `CC(C)OCc1cc(=O)c(O)c2n1CCN(Cc1ccc(Cl)c(Cl)c1)C2=O` [Example 38, 2-(3,4-dichlorobenzyl)-9-hydroxy-6-isopropoxymethyl-3,4-dihydro-2H-pyrido[1,2-a]pyrazine-1,8-dione], the figure is 10 to 100 nM; as for `O=C(NCc1ccccc1)c1cn2ccn(Cc3cccc(Cl)c3)c(=O)c2c(O)c1=O` [Example 180, N-benzyl-2-(3-chlorobenzyl)-9-hydroxy-1,8-dioxo-1,8-dihydro-2H-pyrido[1,2-a]pyrazine-7-carboxamide], below 10 nM; as for `O=c1c(-c2ccccc2Cl)cn2ccn(Cc3cccc(Cl)c3)c(=O)c2c1O` [Example 114, 2-(3-chlorobenzyl)-7-(2-chlorophenyl)-9-hydroxy-2H-pyrido[1,2-a]pyrazine-1,8-dione hydrochloride], below 10 nM.
